Target: T1, human CXCR3 (N-delta 4) (Homo sapiens, UniProt P49682)
T1 construct: CD8 leader (N); Flag tag; expressed in transfected cells; membrane preparation
T1 sequence (P49682 5-368 limits assumed): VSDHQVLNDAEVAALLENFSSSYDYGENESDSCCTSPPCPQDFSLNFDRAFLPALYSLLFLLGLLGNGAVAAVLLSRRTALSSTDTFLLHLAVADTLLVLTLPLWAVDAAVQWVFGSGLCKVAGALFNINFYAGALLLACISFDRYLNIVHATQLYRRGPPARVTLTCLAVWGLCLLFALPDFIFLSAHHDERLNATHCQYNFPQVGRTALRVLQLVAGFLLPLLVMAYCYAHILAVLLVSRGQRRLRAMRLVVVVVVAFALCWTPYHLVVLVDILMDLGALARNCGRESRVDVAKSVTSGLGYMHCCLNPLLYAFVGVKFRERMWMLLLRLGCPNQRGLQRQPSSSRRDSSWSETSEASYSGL
Experiment: Human CXCR3 (N-delta 4) scintillation proximity assay (SPA), [125I] IP-10 binding to Ba/F3-hCXCR3 membranes
Details: IC50 rating; [125I] IP-10 displacement, human CXCR3; read-out: IC50
Procedure, shortened: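 Membranes from Ba/F3 cells expressing Flag-tagged hCXCR3 (N-delta 4), 2 μg/point, precoupled to WGA SPA beads. Binding of 25 pM [125I] IP-10 measured with titrated compounds, 3 hr at room temperature, in HEPES buffer with CaCl2, MgCl2, NaCl and 1.0% BSA; bound tracer read by scintillation counting.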

SMILES	IC50
CC[C@H]1CN(c2ncc(NS(C)(=O)=O)cc2Cl)CCN1C1CCN(C(=O)c2ccc(Cl)c(Cl)c2)CC1 [Compound 63]	> 100 nM
CC[C@H]1CN(c2ncc(NS(N)(=O)=O)cc2Cl)CCN1C1CCN(Cc2ccc(Cl)cc2F)CC1 [Compound 2]	< 25 nM
COC(=O)c1ccc(CN2CCC(N3C[C@H](C)N(c4ncc(Nc5c(NCC(F)(F)F)c(=O)c5=O)cc4Cl)C[C@H]3C)CC2)cc1 [Compound 123]	> 100 nM
CC[C@H]1CN(c2ncc(Nc3c(NC4CC4)c(=O)c3=O)cc2Cl)CCN1C1CCN(Cc2ccc(Cl)cc2C#N)CC1 [Compound 97]	< 25 nM
CC[C@H]1CN(c2ncc(Nc3c(N4CCC4)c(=O)c3=O)cc2Cl)CCN1C1CCN(Cc2ccc(Cl)cc2F)CC1 [Compound 93]	< 25 nM
CC[C@H]1CN(c2ncc(Nc3c(C(C)C)c(=O)c3=O)cc2Cl)CCN1C1CCN(Cc2ccc(OC(F)(F)F)cc2)CC1 [Compound 86]	< 25 nM
CC[C@H]1CN(c2ncc(NS(C)(=O)=O)cc2Cl)CCN1C1CCN(Cc2ccc(F)c(F)c2)CC1 [Compound 21]	< 25 nM
CC[C@H]1CN(c2ncc(Nc3c(C(C)C)c(=O)c3=O)cc2Cl)CCN1C1CCN(Cc2ccc(C#N)cc2)CC1 [Compound 88]	< 25 nM
CC[C@H]1CN(c2ncc(Nc3c(OC)c(=O)c3=O)cc2Cl)CCN1C1CCN(Cc2ccc(Cl)cc2F)CC1 [Compound 106]	25 to 100 nM
CC[C@H]1CN(c2ncc(NS(C)(=O)=O)cc2Cl)CCN1C1CCN(C(=O)c2ccc(Cl)cc2O)CC1 [Compound 62]	> 100 nM
CC[C@H]1CN(c2ncc(Nc3c(NC4CC4)c(=O)c3=O)cc2Cl)CCN1C1CCN(Cc2ccc(Cl)cc2)CC1 [Compound 70]	< 25 nM
C[C@@H]1CN(c2ncc(Nc3c(NCC(F)(F)F)c(=O)c3=O)cc2Cl)[C@@H](C)CN1C1CCN(Cc2ccc(Cl)cc2F)CC1 [Compound 89]	< 25 nM
C[C@@H]1CN(c2ncc(Nc3c(NCC(F)(F)F)c(=O)c3=O)cc2Cl)[C@@H](C)CN1C1CCN(Cc2ccc(Cl)cc2)CC1 [Compound 98]	< 25 nM
C[C@H]1CN(c2ncc(NS(C)(=O)=O)cc2Cl)CCN1C1CCN(C(=O)c2ccc(Cl)cc2)CC1 [Compound 66]	> 100 nM
CC[C@H]1CN(c2ncc(NS(C)(=O)=O)cc2Cl)CCN1C1CCN(Cc2cc3ccccc3o2)CC1 [Compound 48]	> 100 nM
C[C@@H]1CN(c2ncc(Nc3c(NCC(F)(F)F)c(=O)c3=O)cc2Cl)[C@@H](C)CN1C1CCN(CCCC2CCCCC2)CC1 [Compound 118]	> 100 nM
CC[C@H]1CN(c2ncc(NS(C)(=O)=O)cc2Cl)CCN1C1CCN(C(C(=O)OC)c2ccc(Cl)cc2)CC1 (stereo partly shown) [Compound 39]	25 to 100 nM
Cc1ccc(CN2CCC(N3CCN(c4ncc(NS(C)(=O)=O)cc4Cl)C[C@@H]3C)CC2)c(C)c1 [Compound 49]	> 100 nM
CC[C@H]1CN(c2c(F)cc(Nc3c(NC4CC4)c(=O)c3=O)cc2Cl)CCN1C1CCN(Cc2ccc(Cl)cc2F)CC1 [Compound 105]	25 to 100 nM
C[C@@H]1CN(c2ncc(Nc3c(NCC(F)(F)F)c(=O)c3=O)cc2Cl)[C@@H](C)CN1C1CCN(Cc2ccc(Cl)c(Cl)c2)CC1 [Compound 124]	> 100 nM
C[C@@H]1CN(c2ncc(NC3C(=O)C(=O)C3NCC(F)(F)F)cc2Cl)[C@@H](C)CN1C1CCN(Cc2ccc3ccccc3c2)CC1 (stereo partly shown) [Compound 122]	> 100 nM
CCC(=O)[C@@H](c1ccc(Cl)cc1)N1CCC(N2CCN(c3ncc(NS(N)(=O)=O)cc3Cl)C[C@@H]2CC)CC1 [Compound 41]	> 100 nM
CC[C@H]1CN(c2ncc(Nc3c(N)c(=O)c3=O)cc2Cl)CCN1C1CCN(Cc2ccc(Cl)cc2F)CC1 [Compound 76]	< 25 nM
CC[C@H]1CN(c2ncc(Nc3c(NC4CC4)c(=O)c3=O)cc2Cl)CCN1C1CCN(Cc2ccc(C#N)cc2)CC1 [Compound 80]	< 25 nM
CC[C@H]1CN(c2ncc(Nc3c(NCCN(C)C)c(=O)c3=O)cc2Cl)CCN1C1CCN([C@H](CO)c2ccc(Cl)cc2)CC1 [Compound 95]	< 25 nM
CC[C@H]1CN(c2ncc(Nc3c(NC4CC4)c(=O)c3=O)cc2Cl)CCN1C1CCN(C(=O)c2ccc(Cl)cc2)CC1 [Compound 102]	< 25 nM
CC[C@H]1CN(c2ncc(Nc3c(NC4CCC4)c(=O)c3=O)cc2Cl)CCN1C1CCN(C(=O)c2ccc(Cl)cc2)CC1 [Compound 107]	25 to 100 nM

Continued, values first:

IC50	SMILES
25 to 100 nM	CC[C@H]1CN(c2ncc(NC3=NS(=O)(=O)N=C3NC(C)(C)C)cc2Cl)CCN1C1CCN(Cc2ccc(Cl)cc2F)CC1 [Compound 255]
25 to 100 nM	CC[C@H]1CN(c2ncc(NC3=NS(=O)(=O)N=C3N)cc2Cl)CCN1C1CCN(Cc2ccc(OC(F)(F)F)cc2)CC1 [Compound 262]
> 100 nM	CC[C@H]1CN(c2ncc(NC3=NS(=O)(=O)N=C3NCCN)cc2Cl)CCN1C1CCN(Cc2ccc(Cl)cc2F)CC1 [Compound 279]
> 100 nM	CC[C@H]1CN(c2ncc(Nc3c(NCC(=O)O)c(=O)c3=O)cc2Cl)CCN1C1CCN([C@H](CO)c2ccc(Cl)cc2)CC1 [Compound 129]
> 100 nM	C[C@@H]1CN(c2ncc(Nc3c(NCC(F)(F)F)c(=O)c3=O)cc2Cl)[C@@H](C)CN1C1CCN(Cc2cccc(C(F)(F)F)c2)CC1 [Compound 157]
< 25 nM	CC[C@H]1CN(c2ncc(NC3=NS(=O)(=O)N=C3NC3CCC3)cc2Cl)CCN1C1CCN(Cc2ccc(Cl)cc2F)CC1 [Compound 247]
< 25 nM	CC[C@H]1CN(c2ncc(NC3=NS(=O)(=O)N=C3NCC3CC3)cc2Cl)CCN1C1CCN(Cc2ccc(Cl)cc2F)CC1 [Compound 246]
> 100 nM	C[C@@H]1CN(c2ncc(Nc3c(NCC(F)(F)F)c(=O)c3=O)cc2Cl)[C@@H](C)CN1C1CCN(C2CCC(c3ccccc3)CC2)CC1 (stereo partly shown) [Compound 146]
25 to 100 nM	CC[C@H]1CN(c2ncc(NC(N)=O)cc2Cl)CCN1C1CCN(Cc2ccc(Cl)cc2F)CC1 [Compound 186]
> 100 nM	CC[C@H]1CN(c2ncc(Nc3c(NC4CC4)c(=O)c3=O)cc2Cl)CCN1C1CCN([C@@H](C(N)=O)c2ccc(Cl)cc2)CC1 [Compound 167]
> 100 nM	CC[C@H]1CN(c2ncc(NC3=NS(=O)(=O)N=C3N)cc2Cl)CCN1C1CCN(Cc2ccc(Cl)cc2-c2ncon2)CC1 [Compound 265]
> 100 nM	CCC(C)(C)C1CCC(N2CCC(N3C[C@H](C)N(c4ncc(Nc5c(NCC(F)(F)F)c(=O)c5=O)cc4Cl)C[C@H]3C)CC2)C1 (stereo partly shown) [Compound 171]
25 to 100 nM	CC[C@H]1CN(c2ncc(NC3=NS(=O)(=O)N=C3N(C)C)cc2Cl)CCN1C1CCN(Cc2ccc(Cl)cc2C(=N)NO)CC1 [Compound 256]
> 100 nM	C[C@@H]1CN(c2ncc(Nc3c(NCC(F)(F)F)c(=O)c3=O)cc2Cl)[C@@H](C)CN1C1CCN(C2CCCC2)CC1 [Compound 162]
> 100 nM	CC[C@H]1CN(c2cc(N)c(N)cc2Cl)CCN1C1CCN(Cc2ccc(Cl)cc2F)CC1 [Compound 226]
25 to 100 nM	CC[C@H]1CN(c2ncc(N/C(=N/C#N)NC)cc2Cl)CCN1C1CCN(Cc2ccc(Cl)cc2F)CC1 [Compound 205]

IC50	SMILES
> 100 nM	C[C@H]1CN(c2ncc(NC(=O)c3cccnc3)cc2Cl)CCN1C1CCN(Cc2ccc(Cl)cc2)CC1 [Compound 196]
> 100 nM	C[C@H]1CN(c2ncc(-n3cccn3)cc2Cl)CCN1C1CCN(Cc2ccc(Cl)cc2F)CC1 [Compound 225]
> 100 nM	CC[C@H]1CN(c2ncc(NC3=NS(=O)(=O)N=C3Nc3ccccc3O)cc2Cl)CCN1C1CCN(Cc2ccc(Cl)cc2F)CC1 [Compound 277]
> 100 nM	CC[C@H]1CN(c2ncc(NC3=NS(=O)(=O)N=C3NCC(F)(F)F)cc2Cl)CCN1C1CCN(Cc2ccc(F)c(F)c2)CC1 [Compound 264]
> 100 nM	C[C@@H]1CN(c2ncc(Nc3c(NCC(F)(F)F)c(=O)c3=O)cc2Cl)[C@@H](C)CN1C1CCN(Cc2ccc(C#Cc3ccccc3)cc2)CC1 [Compound 126]
> 100 nM	CC[C@H]1CN(c2ncc(NC3=NS(=O)(=O)N=C3NC3CC3)cc2Cl)CCN1C1CCN(C(=O)c2ccc(Cl)cc2O)CC1 [Compound 275]
< 25 nM	CC[C@H]1CN(c2ncc(NC3=NS(=O)(=O)N=C3NCC(F)(F)F)cc2Cl)CCN1C1CCN(Cc2ccc(Cl)cc2F)CC1 [Compound 252]
> 100 nM	CC(=O)Nc1ccc(CN2CCC(N3C[C@H](C)N(c4ncc(Nc5c(NCC(F)(F)F)c(=O)c5=O)cc4Cl)C[C@H]3C)CC2)cc1 [Compound 147]
> 100 nM	Cc1cc(Nc2c(NCC(F)(F)F)c(=O)c2=O)cnc1N1C[C@@H](C)N(C2CCN(C(=O)C3Cc4ccccc4C3)CC2)C[C@@H]1C [Compound 166]
> 100 nM	C[C@@H]1CN(c2ncc(Nc3c(NCC(F)(F)F)c(=O)c3=O)cc2Cl)[C@@H](C)CN1C1CCN(Cc2cc(Cl)cc(Cl)c2)CC1 [Compound 159]
25 to 100 nM	CC[C@H]1CN(c2ncc(Nc3ncccn3)cc2Cl)CCN1C1CCN(Cc2ccc(Cl)cc2F)CC1 [Compound 211]
25 to 100 nM	CC[C@H]1CN(c2ncc(N(C)C)cc2Cl)CCN1C1CCN(C(CO)c2ccc(Cl)cc2)CC1 (stereo partly shown) [Compound 213]
> 100 nM	C[C@@H]1CN(c2ncc(Nc3c(NCC(F)(F)F)c(=O)c3=O)cc2Cl)[C@@H](C)CN1C1CCN(Cc2nccs2)CC1 [Compound 152]
> 100 nM	CC[C@H]1CN(c2ncc([N+](=O)[O-])cc2Cl)CCN1C1CCN(Cc2ccc(Cl)cc2-c2nnc[nH]2)CC1 [Compound 215]
> 100 nM	CC1CCCC(N2CCC(N3C[C@H](C)N(c4ncc(Nc5c(NCC(F)(F)F)c(=O)c5=O)cc4Cl)C[C@H]3C)CC2)C1 (stereo partly shown) [Compound 163]

— patent publication US7566718B2, “Amine-linked pyridyl and phenyl substituted piperazine-piperidines with CXCR3 antagonist activity” (Schering Corporation, priority 2005, dated 2009)
